Read-outs that look alike come from different tables or passages of the source.
Tested on: test plant species
Assay: Post-emergent herbicidal activity test (greenhouse, foliar spray, visual growth reduction)
Assay type: in vivo
Settings: post-emergence, 336 h, 140 g ai/ha
Method in brief: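 Visual scoring 14 d after treatment (0 = no injury, 100 = complete control) against nontreated and solvent-blank plants gave percent growth reduction. Foliar application used a track sprayer delivering 187 L/ha to seedlings at first or second true leaf stage, grown at 23–29 °C day, ~15 h photoperiod.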

[1] = ECHCG: barnyardgrass (Echinochloa crus-galli), 14 days after application, read-out: Visual Growth Reduction (%) 14 Days After Application, ECHCG
[2] = IPOHE: ivy-leaf morning glory (Ipomoea hederacea), 14 days after application, read-out: Visual Growth Reduction (%) 14 Days After Application, IPOHE
[3] = KCHSC: kochia (Bassia scoparia), 14 days after application, read-out: Visual Growth Reduction (%) 14 Days After Application, KCHSC
[4] = ORYSA: rice (Oryza sativa), 14 days after application, read-out: Visual Growth Reduction (%) 14 Days After Application, ORYSA
[5] = SETFA: giant foxtail (Setaria faberi), 14 days after application, read-out: Visual Growth Reduction (%) 14 Days After Application, SETFA
[6] = SORVU: grain sorghum (Sorghum vulgare), 14 days after application, read-out: Visual Growth Reduction (%) 14 Days After Application, SORVU
[7] = STEME: common chickweed (Stellaria media), 14 days after application, read-out: Visual Growth Reduction (%) 14 Days After Application, STEME
[8] = TRZAS: wheat, spring (Triticum aestivum), 14 days after application, read-out: Visual Growth Reduction (%) 14 Days After Application, TRZAS
[9] = ALOMY: blackgrass (Alopecurus myosuroides), 14 days after application, read-out: Visual Growth Reduction (%) 14 Days After Application, ALOMY
[10] = AMARE: redroot pigweed (Amaranthus retroflexus), 14 days after application, read-out: Visual Growth Reduction (%) 14 Days After Application, AMARE
[11] = AVEFA: wild oat (Avena fatua), 14 days after application, read-out: Visual Growth Reduction (%) 14 Days After Application, AVEFA
[12] = CHEAL: lambsquarters (Chenopodium album), 14 days after application, read-out: Visual Growth Reduction (%) 14 Days After Application, CHEAL
[13] = CIRAR: canada thistle (Cirsium arvense), 14 days after application, read-out: Visual Growth Reduction (%) 14 Days After Application, CIRAR
[14] = CYPES: yellow nutsedge (Cyperus esculentus), 14 days after application, read-out: Visual Growth Reduction (%) 14 Days After Application, CYPES
[15] = DIGSA: crabgrass (Digitaria sanguinalis), 14 days after application, read-out: Visual Growth Reduction (%) 14 Days After Application, DIGSA

**Q.** For CSc1cc(-c2nc(C(=O)O)c(Cl)cc2F)c(Cl)cc1C(F)(F)F [F342, 3-Chloro-6-(2-chloro-5-(methylthio)-4-(trifluoromethyl)phenyl)-5-fluoropicolinic acid], which pest or weed control at 140 g/ha [1] is on record?
**A.** 0 to 29%

**Q.** What about the pest or weed control at 140 g/ha [2] of the same compound?
**A.** 85 to 94%

**Q.** And the pest or weed control at 140 g/ha [3]?
**A.** 85 to 94%

**Q.** What about the pest or weed control at 140 g/ha [4] of the same compound?
**A.** 0 to 29%

**Q.** And the pest or weed control at 140 g/ha [5]?
**A.** 30 to 44%

**Q.** And the pest or weed control at 140 g/ha [6]?
**A.** 30 to 44%

**Q.** And the pest or weed control at 140 g/ha [7]?
**A.** 0 to 29%

**Q.** And the pest or weed control at 140 g/ha [8]?
**A.** 30 to 44%

**Q.** And the pest or weed control at 140 g/ha (blackgrass (Alopecurus myosuroides), 14 Days After Application, read-out: Visual Growth Reduction (%) ALOMY)?
**A.** 0 to 29%

**Q.** And the pest or weed control at 140 g/ha (crabgrass (Digitaria sanguinalis), 14 Days After Application, read-out: Visual Growth Reduction (%) DIGSA)?
**A.** 0 to 29%

**Q.** What about the pest or weed control at 140 g/ha (lambsquarters (Chenopodium album), 14 Days After Application, read-out: Visual Growth Reduction (%) CHEAL) of the same compound?
**A.** 60 to 74%

**Q.** What about the pest or weed control at 140 g/ha (redroot pigweed (Amaranthus retroflexus), 14 Days After Application, read-out: Visual Growth Reduction (%) AMARE) of the same compound?
**A.** 0 to 29%

**Q.** What about the pest or weed control at 140 g/ha (wild oat (Avena fatua), 14 Days After Application, read-out: Visual Growth Reduction (%) AVEFA) of the same compound?
**A.** 0 to 29%

**Q.** What about the pest or weed control at 140 g/ha (yellow nutsedge (Cyperus esculentus), 14 Days After Application, read-out: Visual Growth Reduction (%) CYPES) of the same compound?
**A.** 0 to 29%

**Q.** For O=C(O)c1nc(-c2cc3c(cc2Cl)OCO3)c(Cl)cc1Cl [F183, 3,5-Dichloro-6-(6-chlorobenzo[d][1,3]dioxol-5-yl)picolinic acid], which pest or weed control at 140 g/ha [9] is on record?
**A.** 0 to 29%

**Q.** What about the pest or weed control at 140 g/ha [10] of the same compound?
**A.** 60 to 74%

**Q.** And the pest or weed control at 140 g/ha [11]?
**A.** 0 to 29%

**Q.** What about the pest or weed control at 140 g/ha [12] of the same compound?
**A.** 0 to 29%

**Q.** What about the pest or weed control at 140 g/ha [13] of the same compound?
**A.** 30 to 44%

**Q.** What about the pest or weed control at 140 g/ha [14] of the same compound?
**A.** 0 to 29%

**Q.** And the pest or weed control at 140 g/ha [15]?
**A.** 0 to 29%

**Q.** What about the pest or weed control at 140 g/ha [1] of the same compound?
**A.** 0 to 29%

**Q.** And the pest or weed control at 140 g/ha [2]?
**A.** 75 to 84%

**Q.** What about the pest or weed control at 140 g/ha [3] of the same compound?
**A.** 0 to 29%

**Q.** And the pest or weed control at 140 g/ha [4]?
**A.** 0 to 29%

**Q.** What about the pest or weed control at 140 g/ha [5] of the same compound?
**A.** 0 to 29%

**Q.** What about the pest or weed control at 140 g/ha [6] of the same compound?
**A.** 0 to 29%

**Q.** What about the pest or weed control at 140 g/ha [7] of the same compound?
**A.** 0 to 29%

**Q.** What about the pest or weed control at 140 g/ha [8] of the same compound?
**A.** 0 to 29%

**Q.** For COC(=O)c1nc(-c2ccc(C(F)(F)F)cc2Cl)ncc1OC [F104, Methyl 2-(2-chloro-4-(trifluoromethyl)phenyl)-5-methoxypyrimidine-4-carboxylate], which pest or weed control at 140 g/ha [9] is on record?
**A.** 0 to 29%

**Q.** And the pest or weed control at 140 g/ha [10]?
**A.** 0 to 29%

**Q.** What about the pest or weed control at 140 g/ha [11] of the same compound?
**A.** 0 to 29%

**Q.** And the pest or weed control at 140 g/ha [12]?
**A.** 0 to 29%

**Q.** What about the pest or weed control at 140 g/ha [13] of the same compound?
**A.** 0 to 29%

**Q.** What about the pest or weed control at 140 g/ha [14] of the same compound?
**A.** 0 to 29%

**Q.** And the pest or weed control at 140 g/ha [15]?
**A.** 60 to 74%

**Q.** And the pest or weed control at 140 g/ha [1]?
**A.** 0 to 29%

**Q.** And the pest or weed control at 140 g/ha [2]?
**A.** 60 to 74%

**Q.** And the pest or weed control at 140 g/ha [3]?
**A.** 0 to 29%

**Q.** And the pest or weed control at 140 g/ha [4]?
**A.** 0 to 29%

**Q.** And the pest or weed control at 140 g/ha [5]?
**A.** 0 to 29%

**Q.** What about the pest or weed control at 140 g/ha [6] of the same compound?
**A.** 60 to 74%

**Q.** And the pest or weed control at 140 g/ha [7]?
**A.** 0 to 29%

**Q.** What about the pest or weed control at 140 g/ha [8] of the same compound?
**A.** 0 to 29%

**Q.** COC(=O)c1nc(-c2c(Cl)cc(C(F)(F)F)cc2C#N)ccc1Cl [F118, Methyl 3-chloro-6-(2-chloro-6-cyano-4-(trifluoromethyl)phenyl)picolinate] was tested. Which pest or weed control at 140 g/ha [9] did it give?
**A.** 30 to 44%

**Q.** What about the pest or weed control at 140 g/ha [10] of the same compound?
**A.** 95 to 100%

**Q.** What about the pest or weed control at 140 g/ha [11] of the same compound?
**A.** 60 to 74%

**Q.** What about the pest or weed control at 140 g/ha [12] of the same compound?
**A.** 95 to 100%

**Q.** What about the pest or weed control at 140 g/ha [13] of the same compound?
**A.** 95 to 100%

**Q.** What about the pest or weed control at 140 g/ha [14] of the same compound?
**A.** 45 to 59%

**Q.** And the pest or weed control at 140 g/ha [15]?
**A.** 85 to 94%

**Q.** And the pest or weed control at 140 g/ha [1]?
**A.** 85 to 94%

**Q.** And the pest or weed control at 140 g/ha [2]?
**A.** 95 to 100%

**Q.** And the pest or weed control at 140 g/ha [3]?
**A.** 95 to 100%

**Q.** What about the pest or weed control at 140 g/ha [4] of the same compound?
**A.** 60 to 74%

**Q.** And the pest or weed control at 140 g/ha [5]?
**A.** 60 to 74%

**Q.** What about the pest or weed control at 140 g/ha [6] of the same compound?
**A.** 85 to 94%

**Q.** And the pest or weed control at 140 g/ha [7]?
**A.** 0 to 29%

**Q.** What about the pest or weed control at 140 g/ha [8] of the same compound?
**A.** 0 to 29%

**Q.** With COC(=O)c1nc(-c2ccc(SC(F)(F)F)cc2Cl)ccc1Cl [F90, Methyl 3-chloro-6-(2-chloro-4-((trifluoromethyl)thio)phenyl) picolinate] as the compound, how does the pest or weed control at 140 g/ha [9] read?
**A.** 0 to 29%

**Q.** And the pest or weed control at 140 g/ha [10]?
**A.** 75 to 84%

**Q.** What about the pest or weed control at 140 g/ha [11] of the same compound?
**A.** 0 to 29%

**Q.** What about the pest or weed control at 140 g/ha [12] of the same compound?
**A.** 75 to 84%

**Q.** And the pest or weed control at 140 g/ha [13]?
**A.** 85 to 94%

**Q.** And the pest or weed control at 140 g/ha [14]?
**A.** 0 to 29%

**Q.** What about the pest or weed control at 140 g/ha [15] of the same compound?
**A.** 60 to 74%

**Q.** And the pest or weed control at 140 g/ha [1]?
**A.** 0 to 29%

**Q.** And the pest or weed control at 140 g/ha [2]?
**A.** 75 to 84%

**Q.** And the pest or weed control at 140 g/ha [3]?
**A.** 30 to 44%

**Q.** What about the pest or weed control at 140 g/ha [4] of the same compound?
**A.** 0 to 29%

**Q.** What about the pest or weed control at 140 g/ha [5] of the same compound?
**A.** 45 to 59%

**Q.** And the pest or weed control at 140 g/ha [6]?
**A.** 60 to 74%

**Q.** And the pest or weed control at 140 g/ha [7]?
**A.** 0 to 29%

**Q.** And the pest or weed control at 140 g/ha [8]?
**A.** 0 to 29%

— patent US20230017045A1, “PYRIDINE AND PYRIMIDINE CARBOXYLATE HERBICIDES AND METHODS OF USE THEREOF” (Dow AgroSciences LLC, priority 2017, published 2023)
